For one data set, the target named is MVD (δ) (Mus musculus, UniProt P32300). The conditions noted are these: read-out: MVD (δ) opioid agonist IC50; ref 3a; cited from earlier work.
In the next data set the target is GPI (μ) (Cavia porcellus, UniProt P97266). The conditions noted are these: read-out: GPI (μ) opioid agonist IC50; ref 3a; cited from earlier work.
The target in a further data set is human NK1 receptors (Homo sapiens, UniProt P25103). The conditions noted are these: ratio; ref 3a; cited from earlier work.
human NK1 receptors, sequence (P25103 whole entry): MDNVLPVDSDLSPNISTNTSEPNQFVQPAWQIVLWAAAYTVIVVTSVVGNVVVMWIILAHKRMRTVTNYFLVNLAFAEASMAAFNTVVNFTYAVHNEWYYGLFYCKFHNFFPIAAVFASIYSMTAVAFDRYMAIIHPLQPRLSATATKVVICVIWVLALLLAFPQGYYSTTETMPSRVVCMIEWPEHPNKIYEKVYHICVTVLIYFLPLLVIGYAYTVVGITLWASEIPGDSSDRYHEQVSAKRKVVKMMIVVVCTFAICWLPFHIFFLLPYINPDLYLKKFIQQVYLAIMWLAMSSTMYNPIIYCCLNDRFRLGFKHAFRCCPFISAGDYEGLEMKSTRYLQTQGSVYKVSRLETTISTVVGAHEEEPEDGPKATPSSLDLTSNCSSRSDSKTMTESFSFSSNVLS
Another data set concerns the target rat NK1 receptors (Rattus norvegicus, UniProt P14600). The conditions noted are these: read-out: rNK1 Ki; [3H]Substance P; ref 3a; cited from earlier work.
The target of data set [1] is T1, GPI, Substance P induced muscle contraction (Cavia porcellus, UniProt P30547). The conditions noted are these: 1 μM naloxone; ref 3a; cited from earlier work.
T1 sequence (P30547 whole entry): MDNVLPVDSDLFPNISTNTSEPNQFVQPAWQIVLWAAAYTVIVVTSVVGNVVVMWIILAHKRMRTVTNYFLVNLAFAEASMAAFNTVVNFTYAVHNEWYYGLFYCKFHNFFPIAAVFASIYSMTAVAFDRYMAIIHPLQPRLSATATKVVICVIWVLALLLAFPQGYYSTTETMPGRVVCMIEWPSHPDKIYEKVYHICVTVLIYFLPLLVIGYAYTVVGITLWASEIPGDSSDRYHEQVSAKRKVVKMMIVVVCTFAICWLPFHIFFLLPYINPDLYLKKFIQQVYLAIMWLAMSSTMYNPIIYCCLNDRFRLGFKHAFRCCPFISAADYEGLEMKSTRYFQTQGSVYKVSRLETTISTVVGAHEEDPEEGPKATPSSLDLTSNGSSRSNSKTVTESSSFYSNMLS
The subject of the next data set is rodent model. The conditions noted are these: ref 2a, cited from earlier work.
Data set [2] deals with T1, GPI, Substance P induced muscle contraction. Briefly: GPI assay, Substance P antagonist. Type of data set: cell-based. The conditions noted are these: in the presence of 1 μM naloxone, n = 4.

Read-outs that look alike come from different tables or passages of the source.

rat NK1 receptors, sequence (P14600 whole entry): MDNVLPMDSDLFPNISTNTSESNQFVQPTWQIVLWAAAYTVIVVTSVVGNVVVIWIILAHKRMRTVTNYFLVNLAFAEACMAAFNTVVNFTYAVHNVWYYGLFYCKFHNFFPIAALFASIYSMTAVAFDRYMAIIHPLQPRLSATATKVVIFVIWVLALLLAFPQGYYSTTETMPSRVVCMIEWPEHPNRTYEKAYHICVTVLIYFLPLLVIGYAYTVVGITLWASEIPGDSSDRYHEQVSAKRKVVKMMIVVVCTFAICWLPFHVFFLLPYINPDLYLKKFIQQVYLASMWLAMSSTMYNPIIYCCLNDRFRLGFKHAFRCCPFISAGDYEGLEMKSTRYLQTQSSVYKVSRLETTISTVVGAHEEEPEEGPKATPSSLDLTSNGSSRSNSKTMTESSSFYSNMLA
MVD (δ), sequence (P32300 whole entry): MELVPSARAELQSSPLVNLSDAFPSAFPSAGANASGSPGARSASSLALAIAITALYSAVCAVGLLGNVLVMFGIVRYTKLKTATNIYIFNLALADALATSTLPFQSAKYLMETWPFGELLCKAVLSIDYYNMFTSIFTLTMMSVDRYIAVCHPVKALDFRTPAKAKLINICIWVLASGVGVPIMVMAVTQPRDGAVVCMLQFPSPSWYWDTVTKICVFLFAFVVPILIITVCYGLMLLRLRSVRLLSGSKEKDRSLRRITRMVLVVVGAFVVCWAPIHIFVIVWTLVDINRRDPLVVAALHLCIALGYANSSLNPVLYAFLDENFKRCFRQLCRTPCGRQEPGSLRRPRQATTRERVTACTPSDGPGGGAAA

The term IC50 denotes the concentration at which inhibition is half-maximal. The term Ki denotes a dissociation constant, usually derived from enzyme kinetics or from competition with a known ligand. “Tyr^1-DAla^2-Gly^3-Phe^4-Met^5-Pro^6-Leu^7-Trp^8-O-[3′,5′-Bzl(CF3)2] [compound 1]”: the results for the IC50 with MVD (δ) and with GPI (μ) were 22 nM and 360 nM, respectively. The “Ki(hNK1)/Ki(rNK1)” value at human NK1 receptors is 3.5. The Ki in the data set with rat NK1 receptors was 0.29 nM. Besides, in data set [1], the “GPI Substance P antagonist Ke” value is listed as 25 nM. For the same molecule, the opioid-induced tolerance result in the data set with rodent model is on record as “no sign of opioid-induce tolerance”. Further, the reward liability result in the data set on rodent model was “no development of reward liability”. The “effect on neuropathic pain” value in the data set on rodent model (rodent model) is given as “reverse neuropathic pain”.

With `CC(=O)N[C@@H](Cc1c[nH]c2ccccc12)C(=O)OCc1cc(C(F)(F)F)cc(C(F)(F)F)c1` [L-732,138], the “GPI Substance P antagonist Ke” value in data set [2] was 250 nM.

The values are drawn from article PMC3810412 (Bioorganic & medicinal chemistry letters, 2013).
